Reference: PMC8102414 (Heliyon, 2021)
Converted amounts (≈) assume the structure as drawn. Like-named read-outs stand apart in the source and are kept apart here.

What was measured:
[1] = system: Escherichia coli TISTR 780; assay: Antimicrobial MIC, 2-fold serial dilution; details: for MIC (μg/mL) EC: Gram-negative, Escherichia coli (TISTR 780), Inactive at >128 μg/mL
in vitro [2] = format: cell-based; details: mouse
3T3-L1 cells = assay: in vitro; format: cell-based; details: for toxicity to the cells: 3T3-L1 adipocyte cells, glucose consumption assay
3T3-L1 adipocyte cells = assay: Glucose consumption assay; format: cell-based; details: for EC50: Mus musculus, 3T3-L1, read-out: Glucose consumption (IC50, μM); for Glucose consumption (IC50, μM): induction of glucose consumption, 3T3-L1 adipocyte cells, Inactive at >100 μM
[3] = system: Pseudomonas aeruginosa ATCC 10145; assay: Antimicrobial MIC, 2-fold serial dilution; details: for MIC: Pseudomonas aeruginosa, ATCC10145, read-out: MIC (μg/mL) PA
[4] = system: Shigella flexneri DMST 4423; assay: Antimicrobial MIC, 2-fold serial dilution; details: for MIC (μg/mL) SF: Gram-negative, Shigella flexneri (DMST 4423), Inactive at >128 μg/mL; for MIC: Shigella flexneri, DMST4423, read-out: MIC (μg/mL) SF
[5] = system: Micrococcus luteus DMST 15503; assay: Antimicrobial MIC, 2-fold serial dilution; details: for MIC (μg/mL) MT: Gram-positive, Micrococcus luteus (DMST 15503), Inactive at >128 μg/mL
RAW 264.7 cells [6] = assay: Nitric oxide production inhibition assay; format: cell-based
[7] = system: Enterococcus faecalis ATCC 29212; assay: Antimicrobial MIC, 2-fold serial dilution; details: for MIC (μg/mL) EF: Gram-positive, Enterococcus faecalis (ATCC 29212), Inactive at >128 μg/mL
[8] = system: Salmonella typhimurium DMST 562; assay: Antimicrobial MIC, 2-fold serial dilution; details: for MIC (μg/mL) STR: Gram-negative, Salmonella typhimurium (DMST 562), Inactive at >128 μg/mL
[9] = system: Streptococcus pyogenes ATCC, 19615; assay: Antimicrobial MIC, 2-fold serial dilution; details: for MIC (μg/mL) SP: Gram-positive, Streptococcus pyogenes (ATCC, 19615), Inactive at >128 μg/mL
[10] = system: Salmonella typhi DMST 22842; assay: microbe, parasite or virus in culture; format: cell-based; details: Gram-negative; Salmonella typhi (DMST 22842); Inactive at >128 μg/mL
[11] = system: advanced glycation end products (AGEs); assay: Glycation inhibition assay; format: biochemical; details: Inactive at >100 μM; for IC50: read-out: Glycation inhibition (IC50)
[12] = system: Candida albicans ATCC 10231; assay: Antimicrobial MIC, 2-fold serial dilution; details: Fungi; Candida albicans (ATCC 10231); Inactive at >128 μg/mL
in vitro [13] = format: cell-based; details: mouse; remark: listed apart in the source
[14] = system: methicillin resistant Staphylococcus aureus NPRC 001R; assay: Antimicrobial MIC, 2-fold serial dilution; details: for MIC (μg/mL) MRSA: Gram-positive, Methicillin Resistant Staphylococcus aureus (NPRC 001R), Inactive at >128 μg/mL
[15] = system: Staphylococcus aureus ATCC 25923; assay: Antimicrobial MIC, 2-fold serial dilution; details: for MIC (μg/mL) SA: Gram-positive, Staphylococcus aureus (ATCC 25923), Inactive at >128 μg/mL; for MIC: Staphylococcus aureus, ATCC25923, read-out: MIC (μg/mL) SA
S. aureus and MRSA [16] = details: previous study; ref Innok et al., 2010; cited from earlier work
S. aureus and MRSA [17] = assay: Antibacterial MIC against S. aureus and MRSA; details: Staphylococcus aureus, read-out: MIC values against S. aureus and MRSA
[18] = system: Gram-positive bacteria and fungi; assay: Antimicrobial MIC, summary over Gram-positive bacteria and fungi; details: read-out: MIC values against Gram-positive bacteria and fungi
RAW 264.7 cells [19] = assay: in vitro; format: cell-based; details: MTT assay
L6 myotube cells = assay: Glucose uptake assay; format: cell-based; details: Inactive at >100 μM
α-glucosidase = α-glucosidase (Saccharomyces cerevisiae, UniProt P53341); format: biochemical; details: Inactive at >100 μM
α-amylase = α-amylase (Sus scrofa, UniProt P00690); format: biochemical; details: Inactive at >100 μM
[20] = LPS-stimulated NO production in RAW 264.7 cells, Inactive at >100 μM

α-glucosidase, sequence (P53341 whole entry): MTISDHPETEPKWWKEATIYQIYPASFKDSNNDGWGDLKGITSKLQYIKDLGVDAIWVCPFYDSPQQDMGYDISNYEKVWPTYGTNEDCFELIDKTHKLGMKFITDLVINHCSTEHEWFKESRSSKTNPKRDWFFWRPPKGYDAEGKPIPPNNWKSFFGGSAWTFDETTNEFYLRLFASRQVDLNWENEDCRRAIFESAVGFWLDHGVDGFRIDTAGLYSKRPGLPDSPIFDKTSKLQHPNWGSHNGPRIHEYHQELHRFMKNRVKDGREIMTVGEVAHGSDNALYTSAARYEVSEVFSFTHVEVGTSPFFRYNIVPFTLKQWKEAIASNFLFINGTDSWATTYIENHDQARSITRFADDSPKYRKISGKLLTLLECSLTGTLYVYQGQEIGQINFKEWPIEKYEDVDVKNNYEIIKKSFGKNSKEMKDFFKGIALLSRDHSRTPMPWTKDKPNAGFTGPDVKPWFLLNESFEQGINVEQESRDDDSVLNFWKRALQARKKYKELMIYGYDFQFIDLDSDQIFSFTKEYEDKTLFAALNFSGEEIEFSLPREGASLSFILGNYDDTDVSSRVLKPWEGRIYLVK
α-amylase, sequence (P00690 16-511): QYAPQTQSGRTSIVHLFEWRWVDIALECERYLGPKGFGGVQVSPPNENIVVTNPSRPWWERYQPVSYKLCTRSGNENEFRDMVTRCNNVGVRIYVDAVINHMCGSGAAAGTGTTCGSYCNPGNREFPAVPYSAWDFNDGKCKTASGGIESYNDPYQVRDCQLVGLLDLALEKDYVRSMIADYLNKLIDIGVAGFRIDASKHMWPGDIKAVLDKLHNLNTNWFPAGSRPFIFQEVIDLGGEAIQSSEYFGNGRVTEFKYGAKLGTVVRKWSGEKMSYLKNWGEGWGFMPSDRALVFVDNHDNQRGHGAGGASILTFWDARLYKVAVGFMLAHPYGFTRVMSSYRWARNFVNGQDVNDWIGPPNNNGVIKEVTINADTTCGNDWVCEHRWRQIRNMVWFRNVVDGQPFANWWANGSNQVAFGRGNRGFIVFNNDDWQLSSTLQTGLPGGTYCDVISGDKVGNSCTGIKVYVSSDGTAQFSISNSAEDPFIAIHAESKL

Row | Molecule | MIC (μg/mL) EC [1] | EC50 (3T3-L1 adipocyte cells) [µM] | MIC [3] [µg/mL] | MIC (μg/mL) SF [4] | MIC (μg/mL) MT [5] | MIC (μg/mL) EF [7] | MIC (μg/mL) STR [8] | MIC (μg/mL) SP [9] | MIC (μg/mL) ST [10] | Glycation inhibition (IC50, μM) [11] | MIC (μg/mL) CA [12] | MIC (μg/mL) MRSA [14] | MIC (μg/mL) SA [15] | NO Inhibition (IC50, μM) (RAW 264.7 cells [6]; [20]) | Glucose consumption (IC50, μM) (3T3-L1 adipocyte cells) | other results
1 | CC1(C)C=Cc2cc(C=O)ccc2O1 [Compound 27, 2,2-dimethyl-2H-chromene-6-carboxaldehyde] | Inactive | 29.1 ± 0.86 | 128 (≈ 680 µM) | Inactive | Inactive | Inactive | Inactive | Inactive | Inactive | Inactive | Inactive | Inactive | Inactive | – | – | viability (in vitro [2]): 98.2 ± 1.7%; toxicity to the cells (3T3-L1 cells): without toxicity to the cells; IC50 (RAW 264.7 cells [6]; Mus musculus, RAW264.7, read-out: NO Inhibition (IC50, μM)): 52.5 ± 0.56 µM; viability (in vitro [13]): 97.9 ± 1.2%
2 | COc1c2c(cc3oc(=O)ccc13)OC(C)(C)C=C2 [Compound 26, xanthoxyletin] | Inactive | 33.4 ± 0.34 | 128 (≈ 496 µM) | Inactive | Inactive | Inactive | Inactive | Inactive | Inactive | Inactive | Inactive | Inactive | Inactive | Inactive | – | toxicity to the cells (3T3-L1 cells): without toxicity to the cells
3 | COc1ccc2c(c1CC=C(C)C)O[C@H]1c3ccc(O)cc3OC[C@@H]21 [Compound 10, sandwicensin] | Inactive | – | 128 (≈ 378 µM) | – | – | – | – | – | Inactive | Inactive | – | – | – | Inactive | Inactive | MIC values against S. aureus and MRSA (reported) (S. aureus and MRSA [16]): 8 to 64 µg/mL; MIC [4]: 128 µg/mL (≈ 378 µM); MIC ([5]; Micrococcus luteus, DMST15503, read-out: MIC (μg/mL) MT): 8 µg/mL (≈ 23.6 µM); MIC (S. aureus and MRSA [17]): 8 to 64 µg/mL (≈ 23.6 to 189 µM); MIC ([7]; Enterococcus faecalis, ATCC29212, read-out: MIC (μg/mL) EF): 8 µg/mL (≈ 23.6 µM); MIC ([8]; Salmonella enterica, TYPHIMURIUM, read-out: MIC (μg/mL) STR): 128 µg/mL (≈ 378 µM); MIC ([9]; Streptococcus pyogenes, read-out: MIC (μg/mL) SP): 8 µg/mL (≈ 23.6 µM); MIC ([14]; Staphylococcus aureus, MRSA, read-out: MIC (μg/mL) MRSA): 8 µg/mL (≈ 23.6 µM); MIC [18]: 8 to 64 µg/mL (≈ 23.6 to 189 µM); MIC [15]: 64 µg/mL (≈ 189 µM)
4 | CN(C)C(=N)N=C(N)N [Metformin, metformin, reference compound] | – | 47.2 ± 1.17 | – | – | – | – | – | – | – | – | – | – | – | – | – | viability (in vitro [2]): 96.1 ± 0.9%; viability (in vitro [13]): 99.4 ± 0.6%
5 | N=C(N)NN [Aminoguanidine, aminoguanidine, reference compound] | – | – | – | – | – | – | – | – | – | – | – | – | – | – | – | IC50 (RAW 264.7 cells [6]; read-out: NO Inhibition (IC50), LPS-stimulated NO production in RAW 264.7 cells, Inactive at >100 μM): 22.4 ± 0.78 µM; Cell viability raw 264.7 cells (%) (RAW 264.7 cells [19]): 97.9 ± 0.8%
6 | O=C1C[C@@H](c2ccccc2)Oc2cc(O)cc(O)c21 [Compound 15, pinocembrin] | – | – | 128 (≈ 499 µM) | – | Inactive | Inactive | Inactive | Inactive | Inactive | – | Inactive | Inactive | – | Inactive | Inactive | MIC ([1]; Escherichia coli, TISTR780, read-out: MIC (μg/mL) EC): 128 µg/mL (≈ 499 µM); MIC [4]: 128 µg/mL (≈ 499 µM); IC50 [11]: 83.1 ± 0.94 µM; MIC [15]: 128 µg/mL (≈ 499 µM)
7 | 4′-hydroxy-6,3′,5′-triprenylisoflavanone [Compound 24] | 128 µg/mL | – | – | Inactive | Inactive | Inactive | Inactive | 128 µg/mL | 128 µg/mL | – | 128 µg/mL | 128 µg/mL | 128 µg/mL | Inactive | Inactive | Cell viability of 3T3-L1 cells (%) (3T3-L1 cells; MTT assay): 39.7 ± 0.7%; MIC (μg/mL) PA ([3]; Gram-negative, Pseudomonas aeruginosa (ATCC 10145), Inactive at >128 μg/mL): 128 µg/mL; Glucose uptake (fold) (L6 myotube cells): Inactive; α-Glucosidase inhibition (IC50, μM) (α-glucosidase): Inactive; α-Amylase inhibition (IC50, μM) (α-amylase): Inactive; IC50 [11]: 40.5 ± 0.37 µM; Cell viability raw 264.7 cells (%) (RAW 264.7 cells [19]): 3.7 ± 0.1%
8 | COc1ccc(C=CC(=O)O)c(O)c1 [Compound 28, 2-hydroxy-4-methoxy-cinnamic acid] | Inactive | – | 128 (≈ 659 µM) | Inactive | Inactive | Inactive | Inactive | Inactive | Inactive | Inactive | Inactive | Inactive | Inactive | Inactive | Inactive | –
